Read-outs that look alike come from different tables or passages of the source.
Key:
[1] = test system: Metastatic colon cancer (SW620) MTS cells; experiment: Single agent treatment of metastatic colon cancer MTS cells; assay type: cell-based, human; conditions: 5 days, 5-fluorouracil 2.5 μM, Gemcitabine 5 μM
Experimental: Metastatic MTS colon cancer (SW620) were treated for 24 hours with extract samples 1 (moss), 2 (moss), 4 (moss), 6 (moss), 5 (moss), 7 (fern), 8 (fern), 9 (moss), all at 50 mg/mL, and for 5 days with the standard chemotherapeutics 5-fluorouracil at 2.5 μM and Gemcitabine at 5 μM.
Metastatic colon cancer (SW620) MTS cells were treated for 24 hours with extract samples 12 (moss), 13 (fern), 14 (lichen), all at 50 mg/mL, and for 5 days with the standard chemotherapeutics 5-fluorouracil at 2.5 μM and Gemcitabine at 5 μM.

[2] = test system: GBM monolayer culture (ATCC crl-2020); conditions: for Viability: GBM monolayer, 12 hours at 38° C., carmustine 50 μM, curcumin 20 μM, CAPE 20 μM, ABA 400 μM, extract sample 19 10 mg/mL
Source text: (§1) Carmustine, berberine, curcumin, caffeic acid phenyl ester (CAPE), abscisic acid and a extract sample 19 (fern) were used, singly and in various combinations, to assess their potential effectiveness in promoting in vitro cell death responses in a malignant GBM cell line (ATCC crl-2020). Two different culture models were used in these experiments. The majority of vertebrate cells cultured in vitro grow as monolayers on an artificial substrate, as is the case with GBM cells. Live cells attach to the bottom of a tissue culture plate where they proliferate until the surface is confluent with cells. […] The three dimensional structure of solid tumors makes such tumors more resistant to treatment than a GBM cell monolayer culture. To more closely approximate in vivo conditions a multi-cellular tumor spheroid (MTS) model was used. In this model GBM cells were cultured on a 1% agarose matrix in a 24 well tissue culture dish to form multi cellular aggregates. […] Trypan blue staining and microscopic observation was used to assess cell viability after treatment.
A GBM monolayer culture plate was treated with moderately low concentrations of carmustine (50 μM dose); curcumin (20 μM dose); CAPE (20 μM dose); ABA (400 μM dose) and extract sample 19 (10 mg/mL dose). The treated cultures were incubated for 12 hours at 38° C. and assayed. The dosing conditions were sub-optimal dosing conditions designed to allow better assessment of the combined agent results.

[3] = test system: GBM multicellular tumor spheroid (MTS) culture (ATCC crl-2020)
Source text: as §1
A GBM multicellular tumor spheroid (MTS) culture plate was treated with moderately low concentrations of carmustine (50 μM dose); curcumin (20 μM dose); CAPE (20 μM dose); ABA (400 μM dose) and extract sample 19 (10 mg/mL dose). The treated cultures were incubated for 24 hours at 38° C. and assayed. The dosing conditions were designed to represent sub-optimal dosing conditions.
A GBM multicellular tumor spheroid (MTS) culture plate was treated with different two agent and three agent combinations including curcumin and extract sample 13; carmustine and extract sample 13; carmustine and curcumin; and carmustine and curcumin and extract sample 13. The agent concentrations were the same as in the single agent testing (carmustine (50 μM dose); curcumin (20 μM dose); CAPE (20 μM dose); ABA (400 μM dose) and extract sample 13 (10 mg/mL dose).
The treated cultures were incubated for 24 hours at 38° C. and assayed. The dosing conditions were designed to represent sub-optimal dosing conditions.

[4] = test system: Glioblastoma Multiforme (GBM); conditions: cited from earlier work
[5] = Table 18, standard chemotherapeutics
[6] = Table 19, standard chemotherapeutics
[7] = GBM monolayer cell cultures, agent used alone
[8] = GBM MTS cell cultures, agent used alone

## O=c1[nH]cc(F)c(=O)[nH]1 [5-fluorouracil]
[1]; [5]
  % dead cells: 55%
  % live cells: 45%
[1]; [6]
  % dead cells: 75%
  % live cells: 25%

## CC1=CC(=O)CC(C)(C)[C@@]1(O)/C=C/C(C)=C\C(=O)O [ABA, abscisic acid]
[2]; [7]
  cytotoxicity of single agent in words: failed to produce significant cytotoxic responses
[2]
  Viability: 100%
[3]; [8]
  cytotoxicity of single agent in words: failed to produce significant cytotoxic responses

## Nc1ccn([C@@H]2O[C@H](CO)[C@@H](O)C2(F)F)c(=O)n1 [Gemcitabine]
[1]; [5]
  % dead cells: 20%
  % live cells: 80%
[1]; [6]
  % dead cells: 95%
  % live cells: 5%

## O=NN(CCCl)C(=O)NCCCl [carmustine, 1,3-bis(2-chloroethyl)-1-nitrosourea]
[4]; Intravenous administration
  side effects: a decrease of bone marrow blood cells, lung damage and death
[4]; applied in time release fashion to the tumor site, from 11.6 months
  mean survival rate: 13.9 months
[2]; [7]
  cytotoxicity of single agent in words: only low level cytotoxicity
[2]
  Viability: 100%
[3]; [8]
  cytotoxicity of single agent in words: only low level cytotoxicity

## COc1cc(/C=C/C(=O)CC(=O)/C=C/c2ccc(O)c(OC)c2)ccc1O [curcumin]
[2]
  cytotoxicity of single agent in words: failed to produce significant cytotoxic responses
[3]
  cytotoxicity of single agent in words: failed to produce significant cytotoxic responses

## caffeic acid phenyl ester [CAPE]
[2]; [7]
  cytotoxicity of single agent in words: failed to produce significant cytotoxic responses
[2]
  Viability: 100%
[3]; [8]
  cytotoxicity of single agent in words: failed to produce significant cytotoxic responses
